{"source": "patent US20210130417A1", "about": "“SYSTEMS AND METHODS FOR DESIGNING SYNTHETIC ANTIMICROBIAL PEPTIDES” (University of Notre Dame du Lac, priority 2017, published 2021)", "key": {"[1]": {"tested_on": "sheep red blood cells (RBCs)", "conditions": "at the concentrations tested", "protocol": "For hemolysis assays, 100 μL of sheep red blood cells (RBCs) were washed three times in cold PBS (Thermo Fischer). Washed cells were resuspended in 25 mL of PBS. Triton, PBS, or peptide in 10% DMSO/PBS were added to 180 μL of resuspended RBCs and incubated at 37° C. for 1 h. Samples were read at 450 nm. Data was expressed as percent hemolysis by relativizing to the Triton and PBS controls."}, "[2]": {"tested_on": "HaCaT cells", "assay": "Ethidium homodimer cytotoxicity assay", "assay_type": "cell-based, human", "method": "Medium was aspirated, and cells were washed with PBS. […] Cells were incubated with peptide for 16 h. Medium was aspirated, and cells were washed with PBS. […] The fluorescence was read again. […] Washed cells were resuspended in 25 mL of PBS. […] Samples were read at 450 nm."}}, "note": "Residues, ends and D or L forms follow the SMILES beside them.", "data": [{"smiles": "CC[C@H](C)[C@H](NC(=O)[C@H](CC(C)C)NC(=O)[C@H](CO)NC(=O)[C@@H](N)CC(C)C)C(=O)N[C@@H](C)C(=O)N[C@@H](C)C(=O)N[C@@H](C)C(=O)NCC(=O)N[C@@H](CCCCN)C(=O)N[C@@H](CCC(=O)O)C(=O)N[C@H](C(=O)N[C@H](C(=O)N[C@@H](CCCNC(=N)N)C(=O)N[C@@H](CCC(N)=O)C(=O)N[C@@H](Cc1ccc(O)cc1)C(=O)N[C@@H](CC(C)C)C(=O)N[C@@H](CCCCN)C(=O)N[C@@H](CC(N)=O)C(=O)N[C@@H](CCC(=O)O)C(=O)N[C@H](C(=O)N[C@@H](CCCCN)C(=O)N[C@@H](CCCCN)C(=O)N[C@@H](CCCCN)C(=O)NCC(=O)N[C@@H](CCCNC(=N)N)C(=O)N[C@@H](CCCCN)C(=O)N[C@@H](C)C(=O)N[C@H](C(=O)N[C@H](C(=O)N[C@@H](C)C(=O)N[C@@H](Cc1c[nH]c2ccccc12)C(=O)O)[C@@H](C)CC)C(C)C)[C@@H](C)CC)[C@@H](C)CC)[C@@H](C)O", "note": "[syn-safencin] (H-LSLIAAAGKETIRQYLKNEIKKKGRKAVIAW-OH)", "values": [{"measurement": "hemolytic activity", "setting": "[1]", "result": "mild hemolytic activity"}, {"measurement": "cytotoxicity, dose dependence", "setting": "[2]; HaCaT cells treated for 16 h, up to 32 μM", "result": "slight dose-dependent increase in cytotoxicity"}, {"measurement": "cytotoxicity at the MIC for X. axonopodis", "setting": "[2]; HaCaT cells, 16 h, 8 μM peptide", "result": "no significant increase in cytotoxicity"}, {"measurement": "percent of cytotoxicity", "setting": "[2]; HaCaT cells, 16 h, 32 μM peptide (highest dose), vehicle control 17%", "result": "~25", "unit": "%"}]}]}
